Patent publication US10865216B2, “Tricyclic Gyrase inhibitors” (MERCK SHARP & DOHME CORP., priority 2012, dated 2020)
Values after ≈ are worked out from the molar mass of the structure shown.

Legend:
[1] = tested on: S. aureus ATCC 13709; assay: MIC, S. aureus ATCC 13709; assay type: cell-based; details: for MIC: Staphylococcus aureus, ATCC13709, S. aureus, Alamar Blue read after overnight incubation at 35° C., read-out: MIC Sa; for MIC Sa: Table 18, Sa
[2] = tested on: E. coli ATCC 25922; assay: MIC, E. coli ATCC 25922; assay type: cell-based; details: for MIC: Escherichia coli, ATCC25922, E. coli, Alamar Blue read after overnight incubation at 35° C., read-out: MIC Ec; for MIC Ec: Table 18, Ec

Row | SMILES | MIC [1] [µg/mL] | MIC [2] [µg/mL] | MIC Sa [1] [µg/mL] | MIC Ec [2] [µg/mL]
1 | CNc1nccc2c1[nH]c1nc(Oc3cncc(F)c3)nc(N3CCC4(CC4N)C3)c12 (centres unmarked) [Compound 7.07] | 16 (≈ 38.1 µM) | > 64 | – | –
2 | CNc1ncnc2c1[nH]c1nc(Oc3cnc(C)nc3)nc(N3CC(N)C4(CC4)C3)c12 (centres unmarked) [Compound 7.08] | 16 (≈ 38.2 µM) | > 64 | – | –
3 | CNc1ncnc2c1[nH]c1nc(Oc3cnc(C)nc3)nc(N3CCC4(CC4N)C3)c12 (centres unmarked) [Compound 7.09] | 8 (≈ 19.1 µM) | > 64 | – | –
4 | CNc1ncnc2c1[nH]c1nc(Oc3cncnc3)nc(Oc3cncnc3)c12 [Compound 7.10] | > 64 | > 64 | – | –
5 | CNc1ncnc2c1[nH]c1nc(-c3cncnc3)nc(N3CC4C(N)C4C3)c12 (centres unmarked) [Compound 7.11] | > 64 | > 64 | – | –
6 | CNc1ncnc2c1[nH]c1nc(Oc3cnc(C)nc3)nc(N3CCC(CN)C3)c12 (centres unmarked) [Compound 7.12] | > 64 | > 64 | – | –
7 | CNc1cccc2c1[nH]c1nc(Oc3cncnc3)nc(Oc3cncnc3)c12 [Compound 8.1] | 2 (≈ 5.18 µM) | > 64 | – | –
8 | CNc1cccc2c1[nH]c1nc(Oc3cnc(C)nc3)nc(Oc3cnc(C)nc3)c12 [Compound 8.2] | 1 (≈ 2.41 µM) | > 32 | – | –
9 | CNc1cccc2c1[nH]c1nc(Oc3ccc[n+]([O-])c3)nc(Oc3cnc(C)nc3)c12 [Compound 8.3] | 2 (≈ 4.81 µM) | 64 (≈ 154 µM) | – | –
10 | CNc1cccc2c1[nH]c1nc(Oc3cnc(N)nc3)nc(Oc3cnc(N)nc3)c12 [Compound 8.4] | 8 (≈ 19.2 µM) | > 64 | – | –
11 | CNc1cc(F)cc2c1[nH]c1nc(Sc3nncs3)nc(N3C[C@H]4C[C@@H]3C[C@H]4N)c12 [Compound 10.11] | – | – | ≤ 0.5 | ≤ 0.5
12 | CNc1cc(F)cc2c1[nH]c1nc(Oc3cnc4ccnn4c3)nc(N3CC[C@]4(C[C@@H]4N)C3)c12 [Compound 10.12] | – | – | ≤ 0.5 | ≤ 0.5
13 | CNc1cc(F)cc2c1[nH]c1nc(Oc3cnc4ccnn4c3)nc(N3C[C@H]4CCN[C@H]4C3)c12 [Compound 10.13] | – | – | ≤ 0.5 | ≤ 0.5
14 | CNc1cc(F)cc2c1[nH]c1nc(Oc3cnc4ccoc4c3)nc(N3C[C@H]4CCN[C@H]4C3)c12 [Compound 10.14] | – | – | ≤ 0.5 | ≤ 0.5
15 | CNc1cc(F)cc2c1[nH]c1nc(Oc3cnc(C(C)O)c(Cl)c3)nc(N3C[C@H]4C[C@@H]3C[C@H]4N)c12 (some centres unmarked) [Compound 10.15] | – | – | ≤ 0.5 | ≤ 0.5
16 | CNc1cc(F)cc2c1[nH]c1nc(Oc3cnc(C(C)O)c(Cl)c3)nc(N3CC4CCNC4C3)c12 (centres unmarked) [Compound 10.16] | – | – | ≤ 0.5 | ≤ 0.5
17 | CNc1cc(F)cc2c1[nH]c1nc(Oc3cnc(C(C)O)c(Cl)c3)nc(N3CC4C[C@@H](N)C4C3)c12 (some centres unmarked) [Compound 10.17] | – | – | ≤ 0.5 | ≤ 0.5
18 | CNc1cc(F)cc2c1[nH]c1nc(Oc3cnc4ccnn4c3)nc(N3C[C@@H]4[C@H](N)C[C@]4(C)C3)c12 [Compound 10.18] | – | – | ≤ 0.5 | ≤ 0.5
19 | CNc1cc(F)cc2c1[nH]c1nc(Oc3cnc4c(C)cnn4c3)nc(N3C[C@H]4C[C@@H]3C[C@H]4N)c12 [Compound 10.19] | – | – | ≤ 0.5 | ≤ 0.5
20 | CNc1cc(F)cc2c1[nH]c1nc(Oc3cnc4c(C)cnn4c3)nc(N3C[C@H](N)C4(CC4)C3)c12 [Compound 10.20] | – | – | ≤ 0.5 | ≤ 0.5
21 | CNc1cc(F)c(F)c2c1[nH]c1nc(Oc3cnc4ccnn4c3)nc(N3C[C@H]4C[C@@H]3C[C@H]4N)c12 [Compound 10.21] | – | – | ≤ 0.5 | ≤ 0.5
22 | CNc1cc(F)cc2c1[nH]c1nc(Oc3ccn4ccnc4c3)nc(N3C[C@H]4C[C@@H]3C[C@H]4N)c12 [Compound 10.22] | – | – | ≤ 0.5 | ≤ 0.5
23 | CNc1cc(F)cc2c1[nH]c1nc(Oc3cnc4c(Cl)cnn4c3)nc(N3C[C@H]4C[C@@H]3C[C@H]4N)c12 [Compound 10.23] | – | – | ≤ 0.5 | ≤ 0.5
24 | CNc1cc(F)cc2c1[nH]c1nc(Oc3cnc4c(C)cnn4c3)nc(N3C[C@H]4CCN[C@H]4C3)c12 [Compound 10.24] | – | – | ≤ 0.5 | ≤ 0.5
25 | CNc1cc(F)c(F)c2c1[nH]c1nc(Oc3cnc([C@H](C)O)nc3)nc(N3C[C@H]4C[C@@H]3C[C@H]4N)c12 [Compound 10.25] | – | – | ≤ 0.5 | ≤ 0.5

Row | SMILES | MIC [1] [µg/mL] | MIC [2] [µg/mL] | MIC Sa [1] [µg/mL] | MIC Ec [2] [µg/mL]
26 | CNc1cc(F)c(F)c2c1[nH]c1nc(Oc3cnc4c(C)cnn4c3)nc(N3C[C@H]4C[C@@H]3C[C@H]4N)c12 [Compound 10.26] | – | – | ≤ 0.5 | ≤ 0.5
27 | CNc1cc(F)cc2c1[nH]c1nc(Oc3cnc(/C(C)=N/OC)nc3)nc(N3C[C@H]4C[C@@H]3C[C@H]4N)c12 [Compound 10.27] | – | – | ≤ 0.5 | ≤ 0.5
28 | CNc1cc(F)c(F)c2c1[nH]c1nc(Oc3cnc4ccnn4c3)nc(N3C[C@H]4C[C@@H](N)[C@H]4C3)c12 [Compound 10.28] | – | – | ≤ 0.5 | ≤ 0.5
29 | CNc1cc(F)cc2c1[nH]c1nc(Oc3cnc(C(C)O)c(F)c3)nc(N3C[C@H]4C[C@@H]3C[C@H]4N)c12 (some centres unmarked) [Compound 10.29] | – | – | ≤ 0.5 | ≤ 0.5
30 | CNc1cc(F)cc2c1[nH]c1nc(Oc3cnc4c(C)cnn4c3)nc(N3CC4C[C@@H](N)C4C3)c12 (some centres unmarked) [Compound 10.30] | – | – | ≤ 0.5 | ≤ 0.5
31 | CNc1cc(F)c(F)c2c1[nH]c1nc(Oc3cnc([C@@H](C)O)nc3)nc(N3CC4NCC[C@@H]4C3)c12 (some centres unmarked) [Compound 10.31] | – | – | ≤ 0.5 | ≤ 0.5
32 | CNc1cc(F)c(F)c2c1[nH]c1nc(Oc3cnc(C)nc3)nc(N3CC4NCC[C@@H]4C3)c12 (some centres unmarked) [Compound 10.32] | – | – | ≤ 0.5 | ≤ 0.5
33 | CNc1cc(Cl)cc2c1[nH]c1nc(Oc3cnc(C(C)O)nc3)nc(N3C[C@H]4C[C@@H]3C[C@H]4N)c12 (some centres unmarked) [Compound 10.33] | – | – | ≤ 0.5 | ≤ 0.5
34 | CNc1cc(F)cc2c1[nH]c1nc(Oc3cnc4scnc4c3)nc(N3C[C@H]4C[C@@H]3C[C@H]4N)c12 [Compound 10.34] | – | – | ≤ 0.5 | ≤ 0.5
35 | CNc1cc(F)cc2c1[nH]c1nc(Oc3cnc4c(F)cnn4c3)nc(N3C[C@H]4C[C@@H]3C[C@H]4N)c12 [Compound 10.35] | – | – | ≤ 0.5 | ≤ 0.5
36 | CNc1cc(F)cc2c1[nH]c1nc(Oc3cnc4cc(C5CC5)nn4c3)nc(N3C[C@H]4C[C@@H]3C[C@H]4N)c12 [Compound 10.36] | – | – | ≤ 0.5 | ≤ 0.5
37 | CNc1cc(Cl)cc2c1[nH]c1nc(Oc3cnc4ccnn4c3)nc(N3C[C@H]4C[C@@H]3C[C@H]4N)c12 [Compound 10.37] | – | – | ≤ 0.5 | ≤ 0.5
38 | CNc1cc(F)cc2c1[nH]c1nc(Sc3nc4cccnc4[nH]3)nc(N3C[C@H]4C[C@@H]3C[C@H]4N)c12 [Compound 10.38] | – | – | ≤ 0.5 | ≤ 0.5
39 | CNc1cc(F)cc2c1[nH]c1nc(Oc3cnc4c(C)cnn4c3)nc(N3CC4C(N)C4C3)c12 (centres unmarked) [Compound 10.40] | – | – | ≤ 0.5 | ≤ 0.5
40 | CNc1cc(F)cc2c1[nH]c1nc(Nc3cnc(C)nc3)nc(N3C[C@H]4C[C@@H]3C[C@H]4N)c12 [Compound 10.41] | – | – | ≤ 0.5 | ≤ 0.5
41 | CCOC(=O)c1csc(Nc2nc(N3C[C@H]4C[C@@H]3C[C@H]4N)c3c(n2)[nH]c2c(NC)cc(F)cc23)n1 [Compound 10.42] | – | – | ≤ 0.5 | 1 (≈ 2.01 µM)
42 | CNc1cc(F)cc2c1[nH]c1nc(Nc3cnc4c(c3)nnn4C(C)C)nc(N3C[C@H]4C[C@@H]3C[C@H]4N)c12 [Compound 10.43] | – | – | ≤ 0.5 | 1 (≈ 1.99 µM)
43 | CNc1cc(F)cc2c1[nH]c1nc(Nc3cccnc3)nc(N3C[C@H]4C[C@@H]3C[C@H]4N)c12 [Compound 10.44] | – | – | ≤ 0.5 | ≤ 0.5
44 | CNc1cc(F)cc2c1[nH]c1nc(Nc3cnc4ccnn4c3)nc(N3C[C@H]4C[C@@H]3C[C@H]4N)c12 [Compound 10.45] | – | – | ≤ 0.5 | ≤ 0.5
45 | CNc1cc(F)cc2c1[nH]c1nc(Nc3cnn4ccnc4c3)nc(N3C[C@H]4C[C@@H]3C[C@H]4N)c12 [Compound 10.46] | – | – | ≤ 0.5 | ≤ 0.5
46 | CNc1cc(F)cc2c1[nH]c1nc(Cc3cnn(C)c3)nc(N3C[C@H]4C[C@@H]3C[C@H]4N)c12 [Compound 10.47] | – | – | 1 (≈ 2.38 µM) | 8 (≈ 19 µM)
47 | CNc1cc(F)cc2c1[nH]c1nc(NCc3cccnc3)nc(N3C[C@H]4C[C@@H]3C[C@H]4N)c12 [Compound 10.48] | – | – | 8 (≈ 18.5 µM) | 16 (≈ 37 µM)
48 | CNc1cc(F)cc2c1[nH]c1nc(SCc3cccnc3)nc(N3C[C@H]4C[C@@H]3C[C@H]4N)c12 [Compound 10.49] | – | – | ≤ 0.5 | 2 (≈ 4.45 µM)
49 | CNc1cc(F)cc2c1[nH]c1nc(Oc3ccc4ccnn4c3)nc(N3C[C@H]4C[C@@H]3C[C@H]4N)c12 [Compound 10.50] | – | – | ≤ 0.5 | ≤ 0.5
